Patent publication US20050153361A1, “Therapeutic and diagnostic applications of protein disulphide isomerases” (priority 2003, published 2005)
“Also recorded” adds a separate entry of the source.

Tests used:
[1] = tested on: human dermal microvascular endothelial cells (HDMEC); assay: FACS analysis of apoptosis (Annexin V-FITC / propidium iodide) after siRNA transfection; format: cell-based; conditions: for cell population being apoptotic: 10 nM siRNA
Description: (§1) Transfection of microvascular endothelial cells with siRNA: EndoPDI specific (5′-[…]-3′) and PDI specific (5′-[…]-3′) siRNA oligos were synthesized using the SilencerTM siRNA Construction kit (Ambion, Huntingdon, UK) following manufacturer's instructions. HDMEC (5×10^5 cells) were plated onto 0.2% gelatin coated 10 cm petri dishes and incubated for 24 h. Cells were then transfected with 10 nM EndoPDI and/or PDI siRNA using oligofectamine reagent (Invitrogen) according to the manufacturer's instructions. The cells were then incubated for 24 h prior to hypoxia for 16 h (0.1% O2, 5% CO2 and 94.9% N2) or continuation of normoxic exposure for 16 h before performing FACS analysis as described.
FACS Analysis: To distinguish apoptotic from necrotic cells, double staining for exposed phosphatidylserine and propidium iodide (PI) exclusion was performed as follows: Cells were harvested, washed twice with PBS and resuspended in binding buffer (10 mM HEPES/NaOH, pH 7.4, 140 mM NaCl, 2.5 mM CaC12). Five μl Annexin V-FITC antibody (Pharmingen, San Diego, USA) and 10 μl PI (50 μg/ml) were added to the cells. After incubation for 15 min in the dark at room temperature, the cells were analysed by a FACScan. Controls of unstained cells, cells stained with Annexin V-FITC only and cells stained with PI only were used to set up compensation and quadrants.

[2] = tested on: adrenomedullin secretion by HDMEC; assay: Adrenomedullin secretion by HDMEC measured by radioimmunoassay after siRNA treatment; format: cell-based, human; conditions: under hypoxia
Description: as §1
Measurement of adrenomedullin by Radioimmunoassay: The secretion of adrenomedullin by endothelial cells was measured using an adrenomedullin radioimmunoassay (Peninsula Laboratories Europe, Ltd, Merseyside, England) following manufacturer's instructions. Briefly, 50,000 cells were treated with RNAi oligos as before, the medium collected and used in the radioimmunoassay.

[3] = tested on: endothelin-1 secretion by HDMEC; assay: Endothelin-1 secretion by HDMEC measured by ELISA after siRNA treatment; format: cell-based, human; conditions: under hypoxia
Description: as §1
Measurement of endothelin-1 secretion by ELISA: The secretion of endothelin-1 by endothelial cells was measured using a human endothelin-1 ELISA (R&D Systems, Abindgdon, UK) following manufacturer's instructions. Briefly, 50,000 cells were treated with RNAi oligos as before, the medium collected and diluted 1/25 for use in the ELISA.

EndoPDI protein = assay: Western blotting of EndoPDI protein after siRNA transfection; format: cell-based, human; conditions: HDMEC, 10 nM siRNA
Text: Production of polyclonal antibodies to EndoPDI and Western blotting; The peptide of sequence ADGEDGQDPHSKC was synthesized by the Protein and Peptide Chemistry Department of Cancer Research UK, using standard techniques. This sequence corresponds to amino acids 52 to 63 of the human EndoPDI protein sequence with an additional cysteine residue added to the C-terminus to enable coupling to a carrier protein. The peptide was coupled to Imject® Maleimide Activated mcKLH (Pierce, Rockford, USA) following the manufacturer's instructions and diluted with Freunds adjuvant before injection into rabbits. A standard immunisation protocol was followed with 200 μg immunogen used for the first injection and 100 μg immunogen for subsequent boosts. The test bleeds were screened against pre-bleeds by ELISA to identify the presence of antibodies to EndoPDI in the rabbit serum.
as §1

EndoPDI mRNA = assay: RNase protection analysis of EndoPDI mRNA after siRNA transfection; format: cell-based, human; conditions: HDMEC, 10 nM siRNA
Description: RNase Protection Assay. Total RNA was extracted from cells in culture using TRI reagent (Sigma, Poole, Dorset, UK). RNase protection assays were performed in duplicate on 10-30 μg of total RNA as described (16). […] The protected fragment size for EndoPDI was 300 nucleotides. In each assay, a positive and negative (tRNA only) control and undigested riboprobes were analysed. Intensity of signal, quantified on a PhosphorImager (Molecular Dynamics, Chesham, Buckinghamshire, United Kingdom) was calculated as the ratio of the signal of interest to U6 mRNA to correct for variations in loading.
as §1

[4] = tested on: CD105 cell surface expression on HDMEC; assay: CD105 cell surface expression on HDMEC by FACS after siRNA treatment; format: cell-based, human; conditions: under hypoxia
Description: as §1
The cell surface expression of CD105 was quantified by incubating 10^5 cells per tube with 50 μl (10 μl/ml in PBS) of monoclonal antibody to CD105 on ice for 1 h and washed twice with cold PBS. After incubation with FITC-labelled rabbit anti-mouse F(ab)2 (1/40 DAKO) for 30 min on ice, the cells were washed and resuspended in 0.3 ml of 2% buffered formalin and analyzed on a FACScan.

[5] = hypoxia 16 h (0.1% O2), listed as siRNA specific to EndoPDI
[6] = normoxia, listed as siRNA specific to EndoPDI

Substance | necrotic cell population ([1]; HDMEC, hypoxia) | apoptotic population compared with controls ([1]; HDMEC, hypoxia (0.1% O2, 16 h)) | cell population being apoptotic ([1]; HDMEC, hypoxia (0.1% O2, 16 h)) [%] | cell population being apoptotic ([1]; HDMEC, normoxia) [%] | HDMEC survival ([1]; normoxia) | adrenomedullin secretion [2] | endothelin-1 secretion [3] | EndoPDI protein expression (EndoPDI protein; [5]) | EndoPDI protein expression (EndoPDI protein; normoxia) | EndoPDI protein expression (EndoPDI protein; [6]) | EndoPDI mRNA expression (EndoPDI mRNA; [5]) | EndoPDI mRNA expression (EndoPDI mRNA; normoxia) | EndoPDI mRNA expression (EndoPDI mRNA; [6]) | CD105 cell surface expression [4] | share of the cell population with marked reduction in CD105 expression ([4]; two peaks apparent) [%] | apoptotic population compared with controls ([1]; HDMEC, normoxia)
EndoPDI specific siRNA: EndoPDI specific siRNA oligo, 5′-GAAGCTGTGAAGTACCAGGTT-3′, synthesized with the Silencer siRNA Construction kit (listed as DNA, chemistry not given here) | significant increase | significant increase | 12 | 4.5 | no effect | significantly reduced | even greater reduction | loss of EndoPDI expression; also recorded: complete loss | completely blocked | complete loss | loss of EndoPDI expression; also recorded: complete loss | completely blocked | complete loss | marked reduction | 50 | –
PDI specific siRNA: PDI specific siRNA oligo, 5′-GACCTCCCCTTCAAAGTTGTT-3′ (listed as DNA, chemistry not given here) [reference compound] | – | significant increase | 48 | 55 | – | little effect | significant decrease | – | – | – | – | – | – | little effect | – | significant increase
